PMC11655744, “Antioxidant, anti-acetylcholinesterase, and anti-amyloid-β peptide aggregations of hispolon and its analogs in vitro and improved learning and memory functions in scopolamine-induced ICR mice” (Botanical Studies, 2024)
Several values for one entry are separate records, joined by “and”; a condition that tells them apart may be missing. Identical values can stand only once. Counter-ions that a name gives are not always drawn.

B1: lecanemab (antibody, chains of the INN, looked up, V domains shown)
VH: EVQLVESGGGLVQPGGSLRLSCSASGFTFSSFGMHWVRQAPGKGLEWVAYISSGSSTIYYGDTVKGRFTISRDNAKNSLFLQMSSLRAEDTAVYYCAREGGYYYGRSYYTMDYWGQGTTVTVSS
VL: DVVMTQSPLSLPVTPGAPASISCRSSQSIVHSNGNTYLEWYLQKPGQSPKLLIYKVSNRFSGVPDRFSGSGSGTDFTLRISRVEAEDVGIYYCFQGSHVPPTFGPGTKLEIK

Legend:
[1] = DPPH radical scavenging activity; type: biochemical; conditions: 100 µM DPPH in methanol, 20 min, A517nm; IC50 from linear equation of 20, 50 and 100 µM; read-out: IC50 of DPPH radical scavenging activities
Description: The 60 µL of different concentrations of samples (10, 20, 50, 100, 150, and 200 µM diluted with DMSO) were added into a 96-well plate, and then 140 µl of 100 µM DPPH in methanol was added under light protection for 20 min. The changes of absorbance at A517nm were measured, and DMSO was used instead of a sample solution in the control group. The scavenging activity of the DPPH radical (%) was calculated with the following equation: (Control-sample)/control ×100%.

[2] = target: T1, Aβ1-42 peptide (Homo sapiens, UniProt P05067); experiment: Anti-Aβ1-42 peptide aggregation, thioflavin T binding assay; type: biochemical; conditions: 10 µM Aβ1-42, 10 µM ThT, 37 °C, 24 h; read-out: IC50 of anti-Aβ1-42 peptide aggregations
T1 construct: The preparation of Aβ1–42 peptide stock solution was following the previous report; purchased Sigma Chemical Co. (St. Louis, MO)
Description: The DMSO was used instead of the sample solution as the control. […] The inhibition against Aβ aggregation (%) was calculated as [(Econtrol,24−h-Econtrol,0−h)- (Esample,24−h-Esample,0−h)/(Econtrol,24 h-Econtrol,0−h)] ×100%.

[3] = target: T2, recombinant human AChE (Homo sapiens, UniProt P22303); experiment: biochemical; conditions: pH 7.5, tested at 125 to 1000 µM, read-out: AChE inhibitory activity IC50
T2 construct: purchased R&D Systems Inc. (Minneapolis, MN)
Description: The AChE substrates of acetylthiocholine iodide was added for another 15 min, and the DTNB coupling reagents was added and the mixture was recorded at 405 nm for 10 min. The DMSO instead of sample solution was used as the blank. AChE inhibition (%) was calculated by [(A405blank-A405sample)/(A405blank)] ×100%.

[4] = test system: SH-SY5Y neuroblastoma cells; experiment: Neuroprotective activity in methylglyoxal-treated SH-SY5Y neuronal cells (MTT, morphology); type: cell-based; conditions: for morphologies of methylglyoxal-treated SH-SY5Y cells: 10 µM, 500 µM methylglyoxal, photographs, 200-fold; for cell viabilities of methylglyoxal-treated SH-SY5Y cells compared to the control: 24 h pre-treatment, then 500 µM methylglyoxal 24 h, MTT
Description: The SH-SY5Y cells (1 × 10^4 cells/well) were seeded onto a 96-well microplate and cultured in a DMEM/F-12 medium containing 10% FBS for 24 h at 37 °C under a humidified atmosphere and 5% CO2. The cultural medium was removed, and the different concentrations of hispolon (No.1), No.6, and No.7 or 0.1% DMSO (the control and the blank) were added and incubated at 37 °C in a humidified atmosphere with 5% CO2 for 24 h. The treated medium was removed, washed with PBS, and 500 µM MGO in PBS were added to the medium for another 24 h culture. The equal aliquot of PBS was added in the blank.

[5] = test system: scopolamine-induced ICR mice; experiment: Passive avoidance test in scopolamine-induced cognitive dysfunction ICR mice; type: in vivo; conditions: scopolamine 1 mg/kg i.p., P < 0.05
Description: The 5-week-old (N = 30) male ICR mice were purchased from the Laboratory Animal Center in College of Medicine, National Taiwan University, and were housed in wire-bottomed stainless-steel cages and had free access to normal feeds (Prolab^Ⓡ RMH2500, MO) and water, which these cages were placed in an environmental controlled space under a 12-h light/dark cycle. After at least one-week acclimation, the mice were randomly divided into six groups, including the blank, the control, the positive control (donepezil-intervened), and the sample pre-treated groups (No.1, No.6, and No.7 groups). […] For mice in the blank, the control, and the positive control, mice were orally received the same volume of distilled water once daily for 10 days in the parallel experiments. In the second stage of animal experiments during day 11 to day 15, mice in the blank, the control, and the sample groups were treated as reported in the first stage, and mice in the positive control group were treated with donepezil (5 mg/kg) orally once a day by gavage feeding, and 30 min later, mice in the control, sample groups, and positive control were injected intraperitoneally with scopolamine (1 mg/kg, dissolved in PBS), and mice in the blank were injected with the same volume of PBS. At day 13 to day 15, after being injected with scopolamine or the same volume of PBS for 30 min, mice in each group were evaluated learning behaviours by the passive avoidance test. The passive avoidance apparatus, a computerized chamber (PACS-30, Columbus Instruments Inc., Columbus, OH) separated by a sliding guillotine door, is composed of a LED light box and a dark box. At the first day of the acquisition trial (day 13), the guillotine door was opened and each mouse was placed in the LED light box. In case the mouse entered the dark box, the automatic and computerized sliding guillotine door was closed, the entered mouse in the dark box received an electric foot shock (0.3 mA for 3 s) delivered via the wired metal floor and then sent back to the cage. The staying time in the light box (the step-through latency, sec) was recorded. The protocol in the second day (day 14) was the same as the first day. If the mouse stayed in the light box longer than 300 s, and the mouse was expelled into light box and received the same electric foot shocks. At the third day (day 15) of the retention trial, each mouse was placed again in the light box, and the staying time in the light box was recorded. The maximum time was 300 s.

[6] = test system: PC12 cells; experiment: Neurite outgrowths in PC12 pheochromocytoma cells; type: cell-based, rat; conditions: 3-day treatment, blank 3.62 ± 1.62 μm
Description: The PC12 cells (5 × 10^3/well) were seeded in poly-L-lysine coated 96-well plate and cultured in RPMI-640 medium supplemented with 10% horse serum, 5% FBS, 100 U/ml penicillin and 100 mg/l streptomycin for 24 h at 37 °C under the humidified atmosphere and 5% CO2. […] The DMSO was used instead of the sample solution as the blank. After an interval of 3 days, the cell morphologies were photographed using an inverted microscope (200-fold magnifications, ECLIPSE TS100, Nikon Instruments Inc., Tokyo, Japan).

[7] = test system: RAW264.7 macrophages; experiment: Anti-nitric oxide productions in lipopolysaccharide-treated RAW264.7 macrophages (Griess); type: cell-based; conditions: 2.5 µM, 24 h pre-treatment, then LPS 500 ng/ml 24 h
Description: (§1) The 5 × 10^4 macrophages/well were seeded in the 96-well plate and cultured for 24 h at 37 °C under the humidified atmosphere and 5% CO2. The cells were pre-treated with hispolon (No.1, 2.5, 5, 10, and 20 µM), No.2, No.3, No.4, and No.5 (5, 10, and 20 µM), and No.6 and No.7 (5, 10, 20, and 40 µM) for 24 h. The LPS (500 ng/ml) was then added to the pre-treated RAW264.7 macrophages for another 24 h for nitric oxide productions. For nitric oxide productions in LPS-treated RAW264.7 macrophages, the culture supernatant (100 µl) was mixed with 100 µl of Griess reagent at room temperature for 30 min. The absorbance at 550 nm was measured and expressed as relative nitric oxide productions (the control was recognized as 100%). […] The sample pretreated-RAW264.7 cells were stained with MTT solution (500 µg/mL), which the formazan was dissolved by 200 µL DMSO, and the absorbance at 570 nm was measured, and was expressed relative to the blank (%).

[8] = test system: RAW264.7 macrophages; experiment: Cell viability of RAW264.7 macrophages (MTT)
Description: as §1

[9] = test system: soluble Aβ protofibrils; conditions: intravenously every 2 weeks, 10 mg/kg of body weight, 18 months; ref van Dyck et al. [2023]; cited from earlier work
[10] = 40 mg/kg orally once daily, 10-day pre-treatment and days 11-15

T2 sequence (P22303 32-614): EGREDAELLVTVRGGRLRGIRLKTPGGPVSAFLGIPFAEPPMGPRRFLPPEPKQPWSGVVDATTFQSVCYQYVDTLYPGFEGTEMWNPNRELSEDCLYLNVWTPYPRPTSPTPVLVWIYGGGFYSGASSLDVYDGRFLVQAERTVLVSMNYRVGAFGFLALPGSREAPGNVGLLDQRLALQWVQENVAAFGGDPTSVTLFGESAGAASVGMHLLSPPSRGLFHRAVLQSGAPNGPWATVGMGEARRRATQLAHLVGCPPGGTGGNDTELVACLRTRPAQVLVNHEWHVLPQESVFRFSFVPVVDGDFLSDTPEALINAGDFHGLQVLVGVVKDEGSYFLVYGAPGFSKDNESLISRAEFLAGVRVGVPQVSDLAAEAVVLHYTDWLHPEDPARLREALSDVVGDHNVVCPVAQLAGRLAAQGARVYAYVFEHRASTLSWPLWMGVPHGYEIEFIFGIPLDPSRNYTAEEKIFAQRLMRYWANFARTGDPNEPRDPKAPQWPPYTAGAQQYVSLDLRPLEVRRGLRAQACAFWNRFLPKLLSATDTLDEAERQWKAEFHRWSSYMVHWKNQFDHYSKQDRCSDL
T1 sequence (P05067 672-713): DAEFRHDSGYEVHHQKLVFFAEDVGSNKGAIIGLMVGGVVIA

Molecule	IC50 [1]	IC50 [2]	IC50 [3]	step-through latency in the retention trial (day 15) compared to the control [5, 10]	average neurite lengths of PC12 cells ([6]; 1 µM)	average neurite lengths of PC12 cells ([6]; 2 µM)	also measured
COc1cc(/C=C/C(=O)CC(C)=O)cc(OC)c1OC [No.5, 5-methoxyhispolon dimethyl ether]	> 100 µM	> 20 µM	> 1000 µM				
COc1c(O)ccc(/C=C/C(=O)CC(C)=O)c1O [No.7, 2-hydroxy hispolon monomethyl ether]	37.3 µM	0.95 µM and 0.953 µM	> 1000 µM	prolong the staying time in the light box	5.40 ± 1.96 μm	8.05 ± 4.69 μm	morphologies of methylglyoxal-treated SH-SY5Y cells [4]: recover parts of methylglyoxal-damaged neuritic lengths and restore pyramidal shapes; cell viabilities of methylglyoxal-treated SH-SY5Y cells compared to the control ([4]; 1, 2, 5 and 10 µM): had significant differences compared to those in the control
CC(=O)CC(=O)/C=C/c1ccc(O)c(O)c1O [No.6, 2-hydroxy hispolon]	38.2 µM	1.03 µM	286 µM	prolong the staying time in the light box	8.50 ± 3.48 μm	7.01 ± 3.11 μm	morphologies of methylglyoxal-treated SH-SY5Y cells [4]: recover parts of methylglyoxal-damaged neuritic lengths and restore pyramidal shapes; cell viabilities of methylglyoxal-treated SH-SY5Y cells compared to the control ([4]; 1, 2, 5 and 10 µM): had significant differences compared to those in the control
CC(=O)CC(=O)/C=C/c1ccc(O)c(O)c1 [No.1, Hispolon]	32.3 µM	1.41 µM	828 µM	prolong the staying time in the light box	8.02 ± 3.14 μm	8.49 ± 3.61 μm	relative nitric oxide productions (control = 100%) [7]: 70%; cell viabilities of methylglyoxal-treated SH-SY5Y cells compared to the control ([4]; 5 and 10 µM): no significant difference was found compared to those in the control; cytotoxicity toward RAW264.7 macrophages ([8]; 2.5 µM): no apparent toxicities; cytotoxicity toward RAW264.7 macrophages ([8]; 5, 10 and 20 µM): showed cytotoxicities toward RAW264.7 macrophages
NGF							average neurite lengths of PC12 cells ([6]; 100 ng/ml, positive control): 9.18 ± 4.87 μm
COc1cc(/C=C/C(=O)CC(C)=O)cc(O)c1O [No.3, 5-methoxyhispolon]	21 µM	0.35 µM and 0.354 µM	> 1000 µM				
COc1cc2c(cc1OC)C(=O)C(CC1CCN(Cc3ccccc3)CC1)C2 (centres unmarked) [donepezil, donepezil hydrochloride, reference compound]							step-through latency in the retention trial (day 15) compared to the control ([5]; 5 mg/kg orally once a day, days 11-15, positive control): prolong the staying time in the light box
COc1cc(/C=C/C(=O)CC(C)=O)cc(OC)c1O [No.4, 5-methoxyhispolon monomethyl ether]	79.4 µM	12.4 µM	> 1000 µM				
CC(=O)CC(=O)/C=C/c1cc(O)c(O)c(O)c1 [No.2, 5-hydroxy hispolon]	28.3 µM	0.34 µM and 0.335 µM	> 1000 µM				
B1							less cognitive decline in CDR-SB change between baseline and last visit compared to placebo [9]: 27%
